Measured values taken from patent US20190119282A1, “IMIDAZOPYRIDAZINES USEFUL AS INHIBITORS OF THE PAR-2 SIGNALING PATHWAY” (Vertex Pharmaceuticals Incorporated, priority 2013, published 2019).

Tests used:
[1] = test system: UTP-stimulated Ca2+ response in HT-29 cells; assay: Ca FLIPR TETRA assay, ANTAGONIST mode, stimulation with 0.6 μM UTP; type: cell-based, human; details: Homo sapiens, HT-29 cells
Procedure, shortened: (§1)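 Antagonist-mode FLIPR Tetra Ca2+ readout: after 30 min r.t. compound pre-incubation, HT-29 cells are challenged with trypsin (3.1 U/mL final), SLIGKV (8 μM), thrombin (1 U/mL) or UTP (0.6 μM). Cells were plated overnight in 1% FBS medium and dye-loaded with Calcium 5; an initial read checks compound agonism.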

[2] = target: T1, PAR2 (HT-29 cells, SLIGKV activation) (Homo sapiens, UniProt P55085); assay: Ca FLIPR TETRA assay, ANTAGONIST mode, stimulation with 8 μM SLIGKV; type: cell-based; details: HT-29 cells
T1 construct: host or cells: HT-29 cells
T1 sequence (P55085 26-397): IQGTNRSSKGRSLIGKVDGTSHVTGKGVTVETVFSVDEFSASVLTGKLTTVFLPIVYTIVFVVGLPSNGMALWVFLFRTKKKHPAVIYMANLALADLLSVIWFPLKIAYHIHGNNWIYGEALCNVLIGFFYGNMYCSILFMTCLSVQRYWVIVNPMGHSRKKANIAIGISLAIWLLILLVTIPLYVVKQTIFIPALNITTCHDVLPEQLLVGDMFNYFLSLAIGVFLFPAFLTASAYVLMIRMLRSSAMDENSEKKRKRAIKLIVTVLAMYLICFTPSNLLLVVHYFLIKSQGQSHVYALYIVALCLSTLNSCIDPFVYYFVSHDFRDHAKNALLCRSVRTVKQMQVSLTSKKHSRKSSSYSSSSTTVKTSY
Procedure, shortened: as §1

[3] = test system: Thrombin-stimulated Ca2+ response in HT-29 cells; assay: Ca FLIPR TETRA assay, ANTAGONIST mode, stimulation with 1 U/mL Thrombin; type: cell-based, human; details: Homo sapiens, HT-29 cells
Procedure, shortened: as §1

[4] = target: T2, PAR2 (HT-29 cells, trypsin activation) (Homo sapiens, UniProt P55085); assay: Ca FLIPR TETRA assay, ANTAGONIST mode, stimulation with 3.1 U/mL trypsin; type: cell-based; details: HT-29 cells
T2 construct: host or cells: HT-29 cells
T2 sequence (P55085 26-397): T1 sequence (P55085 26-397)
Procedure, shortened: as §1

[5] = antagonist mode, stimulation with 0.6 μM UTP
[6] = antagonist mode, stimulation with 8 μM SLIGKV
[7] = antagonist mode, stimulation with 1 U/mL Thrombin
[8] = antagonist mode, stimulation with 3.1 U/mL trypsin
[9] = stimulation with 1 U/mL Thrombin
[10] = stimulation with 3.1 U/mL trypsin
[11] = antagonist mode, 1 U/mL Thrombin
[12] = antagonist mode, 3.1 U/mL trypsin

Row | Compound | IC50 [1, 5] [nM] | IC50 [2, 6] [nM] | IC50 [3, 7] [nM] | IC50 [4, 8] [nM] | IC50 ([1]; stimulation with 0.6 μM UTP) [nM] | IC50 ([2]; stimulation with 8 μM SLIGKV) [nM] | IC50 [3, 9] [nM] | IC50 [4, 10] [nM] | also measured
1 | Cc1cc(-c2cc(C(C)C)c3nc(C(=O)N4CCN(c5cn[nH]c5)C(=O)C4(C)C)cn3n2)ccc1F [Compound I-405] | > 1000 | 1.6 | > 1000 | 1.8 | – | – | – | – | –
2 | Cc1ccc(-c2cc(C(C)C)c3nc(C(=O)N4CCN(C(=O)C5CC(C)(O)C5)CC4(C)C)cn3n2)cc1 (centres unmarked) [Compound I-333] | > 1000 | 3.2 | > 1000 | 3.8 | – | – | – | – | –
3 | CC(C)(C)c1cc(-c2ccc(F)cc2)nn2cc(C(=O)N3CCN(C(=O)c4ncccn4)CC3(C)C)nc12 [Compound I-285] | > 1000 | 1.8 | 650 | 2.6 | – | – | – | – | –
4 | O=C(c1cn2nc(-c3ccc(F)cc3)cc(C(F)(F)F)c2n1)N1CCCCC1c1ccn[nH]1 (centres unmarked) [Compound I-78] | – | – | – | – | 4500 | 510 | 4100 | 1600 | –
5 | CC(C)(C)c1cc(-c2ccc(F)cc2)nn2cc(C(=O)N3CCN(C(=O)[C@H]4C[C@@](C)(O)C4)CC3(C)C)nc12 [Compound I-319] | 950 | 0.4 | 760 | 0.6 | – | – | – | – | –
6 | CC(C)(C)c1cc(C2CCC(F)(F)CC2)nn2cc(C(=O)N3CCN(C(=O)[C@H]4C[C@@H](C(=O)O)C4)CC3(C)C)nc12 [Compound I-516] | > 1000 | 39.5 | > 1000 | 92 | – | – | – | – | –
7 | C[C@H]1CN(C(=O)c2cn3nc(-c4ccc(F)cc4)ccc3n2)CCN1C(=O)[C@H](O)CC(C)(C)C [Compound I-13, (2R)-1-[(2S)-4-[6-(4-Fluorophenyl)imidazo[1,2-b]pyridazine-2-carbonyl]-2-methyl-piperazin-1-yl]-2-hydroxy-4,4-dimethyl-pentan-1-one] | – | – | – | – | 13000 | 480 | 13000 | 2400 | –
8 | Cc1cc(-c2cc(C(C)C)c3nc(C(=O)N4CCN(c5c[nH]cn5)C(=O)C4(C)C)cn3n2)ccc1F [Compound I-388] | > 1000 | 12.5 | > 1000 | 15.5 | – | – | – | – | –
9 | CC(C)(C)c1cc(-c2ccc(Cl)cc2)nn2cc(C(=O)N3CCNC(=O)C3(C)C)nc12 [Compound I-361] | > 1000 | 2.7 | > 1000 | 2.2 | – | – | – | – | –
10 | CC(C)c1cc(-c2ccc(F)c(F)c2)nn2cc(C(=O)N3CCN(C(=O)[C@H]4C[C@](O)(C(F)(F)F)C4)CC3(C)C)nc12 [Compound I-257] | > 100 | 0.1 | > 100 | 0.2 | – | – | – | – | –
11 | CC(C)C(O)C(=O)N1CCN(C(=O)c2cn3nc(-c4ccc(F)cc4)cc(C4CC4)c3n2)C(C)(C)C1 (centres unmarked) [Compound I-22, 1-[4-[8-cyclopropyl-6-(4-fluorophenyl)imidazo[1,2-b]pyridazine-2-carbonyl]-3,3-dimethyl-piperazin-1-yl]-2-hydroxy-3-methyl-butan-1-one] | – | – | – | – | 25000 | 7 | 21000 | 14 | –
12 | CCc1cc(-c2ccc(F)cc2)nn2cc(C(=O)N3CCN(C(=O)C4(O)CCC4)CC3(C)C)nc12 [Compound I-162] | – | – | – | – | 35000 | 110 | 35000 | 160 | –
13 | CCc1cc(-c2ccc(F)cc2)nn2cc(C(=O)N3CCN(C(=O)[C@H](O)CC(C)(C)C)CC3(C)C)nc12 [Compound I-165] | – | – | – | – | 8000 | 1 | 7400 | 2 | –
14 | CC(C)c1cc(-c2ccc(F)cc2)nn2cc(C(=O)N3CCN(C(=O)Cc4cccnc4)[C@@H](C)C3)nc12 [Compound I-142] | – | – | – | – | 24000 | 35 | 26000 | 280 | –
15 | CC1(c2cc(-c3ccc(F)cc3)nn3cc(C(=O)N4CCN(C(=O)C5(O)CCC5)CC4(C)C)nc23)CC1 [Compound I-33, [6-(4-fluorophenyl)-8-(1-methylcyclopropyl)imidazo[1,2-b]pyridazin-2-yl]-[4-(1-hydroxycyclobutanecarbonyl)-2,2-dimethyl-piperazin-1-yl]methanone] | – | – | – | – | > 50000 | 45 | > 50000 | 14 | –
16 | CNC(=O)[C@@H]1CCN(C(=O)c2cn3nc(-c4ccc(F)cc4)cc(C(F)(F)F)c3n2)C[C@@H]1C [Compound I-95] | – | – | – | – | 43000 | 1600 | > 50000 | 7200 | –

Row | Compound | IC50 [1, 5] [nM] | IC50 [2, 6] [nM] | IC50 [3, 7] [nM] | IC50 [4, 8] [nM] | IC50 ([1]; stimulation with 0.6 μM UTP) [nM] | IC50 ([2]; stimulation with 8 μM SLIGKV) [nM] | IC50 [3, 9] [nM] | IC50 [4, 10] [nM] | also measured
17 | CC(C)(C)c1cc(-c2ccc(F)cc2)nn2cc(C(=O)N3CCNCC3(C)C)nc12 [Compound I-205] | > 1000 | 310 | > 1000 | 580 | – | – | – | – | –
18 | Cc1cc(-c2cc(C(C)C)c3nc(C(=O)N4CCN(C(=O)C5CC(C)(O)C5)CC4(C)C)cn3n2)ccc1F (centres unmarked) [Compound I-378] | > 1000 | 5 | > 1000 | 7.2 | – | – | – | – | –
19 | Cc1cc(-c2ccc(F)cc2)nn2cc(C(=O)N3CCN(C(=O)C4(O)CCC4)[C@@H](C)C3)nc12 [Compound I-159] | – | – | – | – | 36000 | 7300 | 42000 | 17000 | –
20 | CC(=O)N1CCN(C(=O)c2cn3nc(-c4ccc(F)cc4)cc(C(C)(C)C)c3n2)C(C)(C)C1 [Compound I-513] | > 1000 | 1.8 | > 1000 | 3 | – | – | – | – | –
21 | CC1(C)C(=O)NCCN1C(=O)c1cn2nc(-c3ccc(F)cc3)cc(-c3cccnc3)c2n1 [Compound I-568] | – | – | – | – | – | – | – | – | IC50 ([1]; antagonist mode, 0.6 μM UTP): > 1000 nM; IC50 ([2]; antagonist mode, 8 μM SLIGKV): 520 nM; IC50 [3, 11]: > 1000 nM; IC50 [4, 12]: 620 nM
22 | O=C(c1cn2nc(-c3ccc(F)cc3)cc(C(F)(F)F)c2n1)N1CCCCC1c1ccccn1 (centres unmarked) [Compound I-79] | – | – | – | – | 3000 | 1300 | 2000 | 1700 | –
23 | Cc1cc(-c2cc(C(C)(C)C)c3nc(C(=O)N4CCNC(=O)C4(C)C)cn3n2)ccc1F [Compound I-329] | > 1000 | 5.9 | > 1000 | 2.8 | – | – | – | – | –
24 | CC(C)c1cc(C2CCOCC2)nn2cc(C(=O)N3CCN(C(=O)C4(O)CCC4)CC3(C)C)nc12 [Compound I-45, [4-(1-hydroxycyclobutanecarbonyl)-2,2-dimethyl-piperazin-1-yl]-(8-isopropyl-6-tetrahydropyran-4-yl-imidazo[1,2-b]pyridazin-2-yl)methanone] | – | – | – | – | > 50000 | 20000 | > 50000 | > 50000 | –
25 | CC(C)(C)c1cc(-c2ccc(F)cc2)nn2cc(C(=O)N3CCN(C(=O)C45CC(C(=O)O)(C4)C5)CC3(C)C)nc12 [Compound I-559] | – | – | – | – | – | – | – | – | IC50 ([1]; antagonist mode, 0.6 μM UTP): > 1000 nM; IC50 ([2]; antagonist mode, 8 μM SLIGKV): 20 nM; IC50 [3, 11]: > 1000 nM; IC50 [4, 12]: 51.5 nM
26 | CC1(C)C(=O)NCCN1C(=O)c1cn2nc(-c3ccc(F)cc3)cc(C(F)(F)F)c2n1 [Compound I-35, 4-[6-(4-Fluorophenyl)-8-(trifluoromethyl)imidazo[1,2-b]pyridazine-2-carbonyl]-3,3-dimethyl-piperazin-2-one] | – | – | – | – | 41000 | 23 | 43000 | 62 | –
27 | COC(=O)[C@H]1CC[C@@H](C(=O)N2CCN(C(=O)c3cn4nc(-c5ccc(Br)cc5)cc(C(C)(C)C)c4n3)C(C)(C)C2)CC1 [Compound I-520] | > 1000 | 1 | > 1000 | 1 | – | – | – | – | –
28 | Cc1nc(N2CCN(C(=O)c3cn4nc(-c5ccc(F)c(C)c5)cc(C(C)C)c4n3)C(C)(C)C2=O)c[nH]1 [Compound I-389] | > 1000 | 20 | > 1000 | 25 | – | – | – | – | –
29 | CCCC(=O)N1CCN(C(=O)c2cn3nc(-c4ccc(F)cc4)cc(C(C)C)c3n2)C[C@@H]1C [Compound I-124] | – | – | – | – | 13000 | 26 | 15000 | 160 | –
30 | CC(C)c1cc(-c2ccc(Cl)cc2)nn2cc(C(=O)N3CCN(C(=O)[C@H]4C[C@H](O)C4)CC3(C)C)nc12 [Compound I-540] | > 1000 | 4.2 | > 1000 | 8.2 | – | – | – | – | –
31 | CC(C)(O)c1cc(-c2ccc(F)cc2)nn2cc(C(=O)N3CCNC(=O)C3(C)C)nc12 [Compound I-184, 4-[6-(4-fluorophenyl)-8-(1-hydroxy-1-methyl-ethyl)imidazo[1,2-b]pyridazine-2-carbonyl]-3,3-dimethyl-piperazin-2-one] | 1950 | 125 | 1450 | 182 | – | – | – | – | –
32 | CC(C)c1cc(-c2ccc(Cl)cc2)nn2cc(C(=O)N3CCN(C(=O)[C@H]4C[C@@](C)(O)C4)CC3(C)C)nc12 [Compound I-541] | > 1000 | 1 | > 1000 | 1.5 | – | – | – | – | –
